System: lipofuscin bisretinoids (A2E, A2-DHP-PE, atRAL di-PE)
Assay: Bisretinoid (lipofuscin fluorophore) levels in eyecups of Abca4−/− mice by HPLC
Type: in vivo, mouse
Text: The Abca4−/− mouse model manifests accelerated accumulation of lipofuscin in the RPE and is considered a pre-clinical efficacy model for a drug reducing lipofuscin accumulation. […] There was approximately a 70% reduction in the serum RBP4 level in treated animals (FIG. 11). Additionally, it was discovered that that the levels of A2E/isoA2E and other bisretinoids were reduced by approximately 50% in treated mice (FIG. 12).
Abca4/Abcr null mutant mice (albino) homozygous for Rpe65-Leu450 are bred genotyped and housed. Posterior eyecups of mice and RPE/choroids harvested from human donor eyes (National Disease Research Interchange, Philadelphia Pa.) are homogenized in phosphate buffered saline (PBS) using a glass tissue grinder and extracted in chloroform/methanol (2:1). Extracts are subsequently filtered through cotton and passed through a reverse phase cartridge (C8 Sep-Pak, Millipore) with 0.1% TFA (Aldrich Chemical Company, Milwaukee, Wis.) in methanol. […] An Alliance system (Waters, Corp, Milford, Mass.) equipped with 2695 Separation Module, 2996 Photodiode Array Detector, a 2475 Multi λ Fluorescence Detector and operating with Empower® software is used for HPLC analysis. […] HPLC quantification is carried out using the Empower® software to determine peak areas. […] Molar quantity per murine eye is determined using calibration curves constructed from known concentrations of purified external standards and by normalizing to the ratio of the HPLC injection volume (10 μL) versus total extract volume. […]
Following euthanasia, posterior eye cups were pooled and homogenized in PBS using a tissue grinder. […] For quantification of bisretinoids of RPE lipofuscin, a Waters Alliance 2695 HPLC system was employed with an Atlantis dC18 column (Waters, 4.6 mm×150 mm, 3 μm) and the following gradient of acetonitrile in water (containing 0.1% trifluoroacetic acid): 90 to 100% from 0 to 10 min and 100% acetonitrile from 10 to 20 min, with a flow rate of 0.8 mL/min with monitoring at 430 nm. […] Levels of bisretinoid were determined by reference to external standards of HPLC-purified compound. […]

[1] = treated mice, oral 30 mg/kg (Example 3)

O=C(O)c1ccccc1NC(=O)N1CCC(c2ccccc2C(F)(F)F)CC1 [Compound 1, 2(4-(2-(trifluoromethyl)phenyl)piperidine-1-carboxamido)benzoic acid]
Effect on bisretinoid accumulation (in words) (Abca4−/− mouse model of excessive lipofuscinogenesis): inhibits bisretinoid accumulation
Levels of A2-DHP-PE and atRAL di-PE [1]: also reduced
Reduction of levels of A2E/isoA2E and other bisretinoids [1]: approximately 50%

— US9333202B2, “Non-retinoid antagonists for treatment of age-related macular degeneration and stargardt disease” (THE TRUSTEES OF COLUMBIA UNIVERSITY IN THE CITY OF NEW YORK, priority 2012, dated 2016)
